Values of other authors as cited in patent EP3124016B1, “ANTIPSORIATIC EMULSION COMPOSITION COMPRISING CEFAZOLIN” (Warszawski Uniwersytet Medyczny, priority 2015, dated 2017).
Counter-ions that a name gives are not always drawn.

Details: 1% aqueous solution

Cc1nnc(SCC2=C(C(=O)O)N3C(=O)[C@@H](NC(=O)Cn4cnnn4)[C@H]3SC2)s1 [cefazolin sodium salt]
time for which eye drops were stable (stored at 4°C): 42 days
time for which stability lasted (eye drops, storage in room temperature): only for a few days
